The target of data set [1] is A2A-adenosine receptor (Homo sapiens, UniProt P29274). The following applies: result in words; cited from earlier work.
The conditions of data set [2]: cited from earlier work.
Data set [3] can be described thus: stability of the polymorphs (relative humidity stress, moisture sorption/desorption, thermal analyses). It counts as physicochemical. As to conditions: for stability relative to the other polymorphs: ambient temperatures; for stability relative to the other polymorphs / stability under relative humidity stress conditions: monohydrate; for stability under relative humidity stress conditions: up to melting point. The method, then:
Thermogravimetric (TG) analyses were carried out on a TA Instruments 2050 or 2950 thermogravimetric analyzer. The calibration standards were nickel and Alumel™. Samples were placed in an aluminum sample pan, inserted into the TG furnace, and accurately weighed. The samples were heated in nitrogen at a rate of 10° C./min to either 300 or 350° C. Unless stated otherwise, sample weights were equilibrated at 25° C. in the TGA furnace prior to analysis.
Differential scanning calorimetry (DSC) analyses were carried out on a TA Instruments differential scanning calorimeter 2920. Accurately weighed samples were placed in either crimped pans or hermetically sealed pans that contained a pinhole to allow for pressure release. Each sample was heated under nitrogen at a rate of 10° C./min to either 300 or 350° C. Indium metal was used as the calibration standard. Temperatures were reported at the transition maxima.
Moisture sorption/desorption data were collected on a VTI SGA-100 Vapor Sorption Analyzer. Sorption and desorption data were collected over a range of 5% to 95% relative humidity […] at 10% RH intervals under a nitrogen purge. Sodium chloride (NaCl) and polyvinylpyrrolidone (PVP) were used as the calibration standards. Equilibrium criteria used for analysis were less than 0.0100% weight change in 5 minutes, with a maximum equilibration time of 180 minutes if the weight criterion was not met. The plotted data have not been corrected for the initial moisture content.

Chain of A2A-adenosine receptor (P29274 whole entry): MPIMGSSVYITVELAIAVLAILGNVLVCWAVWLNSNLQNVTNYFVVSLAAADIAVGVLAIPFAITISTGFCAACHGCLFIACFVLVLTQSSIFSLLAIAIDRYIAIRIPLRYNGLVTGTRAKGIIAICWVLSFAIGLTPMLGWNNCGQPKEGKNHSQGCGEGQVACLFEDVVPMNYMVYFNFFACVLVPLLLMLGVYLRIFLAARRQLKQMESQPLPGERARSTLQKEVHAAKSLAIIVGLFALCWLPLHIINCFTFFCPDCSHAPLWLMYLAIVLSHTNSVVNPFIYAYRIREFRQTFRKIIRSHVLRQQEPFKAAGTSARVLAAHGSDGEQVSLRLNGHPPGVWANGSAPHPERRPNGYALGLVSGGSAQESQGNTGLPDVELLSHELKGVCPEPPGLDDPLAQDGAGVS

For `CNC(=O)c1cnn(-c2nc(N)c3ncn([C@@H]4O[C@H](CO)[C@@H](O)[C@H]4O)c3n2)c1` [(1-{9-[(4S,2R,3R,5R)-3,4-dihydroxy-5-(hydroxymethyl)oxolan-2-yl]-6-aminopurin-2-yl}pyrazol-4-yl)-N-methylcarboxamide], the “A2A-adenosine receptor agonist selectivity” value in data set [1] is listed as “highly selective A2A-adenosine receptor agonist”. Regarding `Nc1ncnc2c1ncn2[C@@H]1O[C@H](CO)[C@@H](O)[C@H]1O` [Adenosine], the “half life in humans” value in data set [2] is recorded as “less than 10 seconds”. On to `CNC(=O)c1cnn(-c2nc(N)c3ncn([C@@H]4O[C@H](CO)[C@@H](O)[C@H]4O)c3n2)c1` [Amorphous Material, (1-{9-[(4S,2R,3R,5R)-3,4-dihydroxy-5-(hydroxymethyl)oxolan-2-yl]-6-aminopurin-2-yl}pyrazol-4-yl)-N-methylcarboxamide], for which the “stability in the presence of atmospheric moisture” value in data set [3] (atmospheric moisture) is reported as “unstable in the presence of atmospheric moisture, forming variable hydrates”. For the compound `CNC(=O)c1cnn(-c2nc(N)c3ncn([C@@H]4O[C@H](CO)[C@@H](O)[C@H]4O)c3n2)c1.O` [Form A, (1-{9-[(4S,2R,3R,5R)-3,4-dihydroxy-5-(hydroxymethyl)oxolan-2-yl]-6-aminopurin-2-yl}pyrazol-4-yl)-N-methylcarboxamide monohydrate], in data set [3] (listed as monohydrate), the “stability relative to the other polymorphs” value is recorded as “the most stable” and the “stability under relative humidity stress conditions” value is “stable under relative humidity stress conditions, up to its melting point”. Besides, in data set [3], the “stability relative to the other polymorphs” value is reported as “the most stable of the various polymorphs at ambient temperatures” and the “stability under relative humidity stress conditions” value was “stable under relative humidity stress conditions up to its melting point”.

Take `CNC(=O)c1cnn(-c2nc(N)c3ncn([C@@H]4O[C@H](CO)[C@@H](O)[C@H]4O)c3n2)c1` [Polymorph C, (1-{9-[(4S,2R,3R,5R)-3,4-dihydroxy-5-(hydroxymethyl)oxolan-2-yl]-6-aminopurin-2-yl}pyrazol-4-yl)-N-methylcarboxamide]: the “behaviour at elevated temperatures” value in data set [3] (elevated temperatures) is “desolvates to an unstable form”.
